Measurements reported in patent EP0199170A1, “Composition and method for providing cytoprotection of the gastric mucosa in a mammal receiving aspirin” (priority 1985, dated 1986).
Where two headings read alike, the source gives them in different places. Marks after values point to notes of the source that are not given here.

Key:
[1] = tested on: Acute Inflammation In Rats; assay: Carrageenin model of acute inflammation (paw edema); assay type: in vivo, Sprague-Dawley rats; conditions: for inhibition at 100 mg/kg: Rattus norvegicus; for Mean Paw Edema, ml+S.E.: control 1.16±0.1, 9 rats per group
Description: Male Sprague-Dawley rats (initial weight of about 200 g.) received a single oral dose of sodium thiosulfate (anhydrous) at either 30, 100 or 300 mg/kg coadministered with 100 mg/kg of aspirin in the carrageenin model of acute inflammation (paw edema) [C.A. Winter et al, "Carrageenin-lnduced Edema in Hind Paw of the Rat as an Assay for Anti-Inflammatory Drugs, "Proc. Soc. Exptl.

[2] = tested on: Adjuvant Arthritis In Rats; assay: Adjuvant-induced arthritis assay (chronic inflammation, injected hind paw volume); conditions: for inhibition at 150 mg/kg: Rattus norvegicus, po, 384 h; for Injected Hind Paw Volume ml + S.E.: adjuvant control 5.57±0.4, normal control 1.89±0.03; for influence on the antiinflammatory efficacy of aspirin: adjuvant-induced arthritis assay, coadministered with aspirin
Description: 300 mg/kg for 16 days coadministered with 150 mg/kg of aspirin in an adjuvant-induced arthritis assay [C.J. Pearson, "Experimental Joint Disease", J. Chron.

Aspirin Lesions = assay: Gastric cytoprotection against aspirin lesions in adjuvant arthritic rats; assay type: in vivo, Sprague-Dawley rats; conditions: for Area of Lesion (mm^2), Mean + S.E. / No. of Lesions, Mean + S.E. / No. of Rats with Lesions: single daily oral administration for 16 days; for effectiveness as cytoprotectant against aspirin-induced gastric lesions in arthritic rats: coadministered with aspirin in the adjuvant-induced arthritis assay
Description: 300 mg/kg for 16 days coadministered with 150 mg/kg of aspirin in an adjuvant-induced arthritis assay [C.J. Pearson, "Experimental Joint Disease", J. Chron. […] At the completion of the assay-the stomachs were excised and examined for the presence or absence of lesions.

male Sprague-Dawley rats = assay: Acute oral toxicity in rats; conditions: for toxicity: summary statement
Excerpt: Sodium thiosulfate (anhydrous) was given as a single oral dose to male Sprague-Dawley rats weighing approximately 116-140 g to determine its approximate acute oral LD50. The rats were fasted for four hours before medication, observed for seven days following medication and all surviving rats sacrificed and necropsied at the completion of the study.

[3] = tested on: Aspirin-induced Gastric Mucosal Erosions; assay: Aspirin-induced hemorrhagic gastric erosions in fasted rats, lesion number and area by computerized planimetry; assay type: in vivo, Sprague-Dawley rats; conditions: for gastric cytoprotection: coadministered with acidified aspirin 10 mg/100 g, fasted rats; for Aspirin-induced Gastric Mucosal Erosions, percentage of glandular stomach area / Aspirin-induced Gastric Mucosal Erosions, total number of erosions: sacrificed 1 hour after; for Aspirin-induced Gastric Mucosal Erosions, percentage of glandular stomach area: dose 0 group 1.42; for Aspirin-induced Gastric Mucosal Erosions, total number of erosions: dose 0 group 11.90
Description: Fasted Sprague-Dwaley female rats were given intragastrically (ig) at least four different doses ranging from 1-30 mg/100 g. body weight of sodium thiosulfate either 30 minutes before or parallel with intragastric administration of 10 mg/100 g body weight of acidified aspirin. Rats were killed one hour after aspirin administration and the number of hemorrhagic gastric erosions (or_ lesions) was determined and the area of erosion was measured by computerized planimetry.
Fasted Sprague-Dawley Female rats were given intragastrically (ig) at least three different doses ranging from 5-30 mg/100 g body weight of 3,3'-thiobis[propanoic acid] either 30 minutes before or parallel with intragastric administration of 10 mg/100 g body weight of acidified aspirin. Rats were killed one hour after aspirin administration and the number of hemorrhagic gastric erosions (or lesions) was determined and the area of erosion was measured by computerized planimetry. 3,3'-Thiobis[propanoic acid]
All of the experiments in this example were performed in female Sprague-Dawley rats having an initial body weight of 150-200 g. […] Before the administration of aspirin, the rats were fasted over night. […] The extent of gastric mucosal injury was evaluated by a Zeiss stereomicroscope coupled with a computerized planimeter which allowed both surface measurement and counting of lesions, according to the published method of Sandor Szabo et al entitled "A Quantitative Method for Assessing the Extent of Experimental Gastric Erosions and Ulcers", J. Pharmacological Methods 13, 59-66, 1985. Light microscopy of formalin-fixed sections was also performed.
Aspirin was suspended in 1% methylcellulose dissolved in 200 mM HCI and was administered at 10 mg/100 g body weight by gavage with rubber tube (Rusch No. 8) and rats were killed one hour later. The study design is presented as follows in Table A.
In the initial experiment, doses of sodium thiosulfate as its pentahydrate were given per os - (p.o.) either 30 minutes or 30 seconds before aspirin. The. 30 second pretreatment is virtually a parallel administration of the compounds.

[4] = Table G: 150 mg/kg each, single oral daily doses for 16 days
[5] = Table H: aspirin 150 mg/kg, Na thiosulfate 300 mg/kg, single oral daily doses for 16 days
[6] = Table D: 150 mg/kg each, controls 0
[7] = Table D: 150 mg/kg each, controls 0/10
[8] = Table D: 150 mg/kg each, controls 0, listed as aspirin
[9] = Table E: aspirin 150 mg/kg, Na thiosulfate 300 mg/kg, controls 0.04±0.04
[10] = Table E: aspirin 150 mg/kg, Na thiosulfate 300 mg/kg, controls 0.1±0.1
[11] = Table E: aspirin 150 mg/kg, Na thiosulfate 300 mg/kg, controls 1/10
[12] = parallel administration with aspirin 10 mg/100 g, converted from mg/100 g pentahydrate

Compound | Mean Paw Edema, ml+S.E. ([1]; single oral dose 100 mg/kg) [mL] | Injected Hind Paw Volume ml + S.E. [2, 4] [mL] | Area of Lesion (mm^2), Mean + S.E. (Aspirin Lesions; [6]) [mm^2] | No. of Lesions, Mean + S.E. (Aspirin Lesions; [6]) | No. of Rats with Lesions (Aspirin Lesions; [7]) | Area of Lesion (mm^2), Mean + S.E. (Aspirin Lesions; [9]) [mm^2] | No. of Lesions, Mean + S.E. (Aspirin Lesions; [10]) | No. of Rats with Lesions (Aspirin Lesions; [11]) | toxicity (male Sprague-Dawley rats) | influence on the antiinflammatory efficacy of aspirin [2] | effectiveness as cytoprotectant against aspirin-induced gastric lesions in arthritic rats (Aspirin Lesions) | gastric cytoprotection ([3]; intragastric) | minimum statistically significant effective dose (MED) [3, 12] | further results
CC(=O)Oc1ccccc1C(=O)O [Aspirin, aspirin] | 0.65 ± 0.1 | 3.31 ± 0.2 | 16.02±3.82 | 15.2±2.9 | 10/10 | 11.61±4.42 | 25.7±4.9 | 9/9 | – | – | – | – | – | inhibition at 100 mg/kg ([1]; po): 44%; inhibition at 150 mg/kg [2, 4]: 61%; inhibition at 150 mg/kg [2, 5]: 43%; Area of Lesion (mm^2), Mean + S.E. (Aspirin Lesions; [8]): 16.02 mm^2; No. of Lesions, Mean + S.E. (Aspirin Lesions; [8]): 15.2; Area of Lesion (mm^2), Mean + S.E. (Aspirin Lesions; Table E: aspirin 150 mg/kg, Na thiosulfate 300 mg/kg, controls 0.04±0.04, listed as aspirin): 11.61 mm^2; No. of Lesions, Mean + S.E. (Aspirin Lesions; Table E: aspirin 150 mg/kg, Na thiosulfate 300 mg/kg, controls 0.1±0.1, listed as aspirin): 25.7
CCCCC1C(=O)N(c2ccccc2)N(c2ccccc2)C1=O [Phenylbutazone, phenylbutazone] | 0.41 ± 0.03 | – | – | – | – | – | – | – | – | – | – | – | – | inhibition at 100 mg/kg ([1]; single oral dose 100 mg/kg, paw edema vs control, read-out: % Inhibition): 65%
O=C(O)CCSCCC(=O)O [TBPA, 3,3'-Thiobis[propanoic acid]] | – | – | – | – | – | – | – | – | low order of toxicity | did not reduce the antiinflammatory efficacy of ASA | effectiveness of TBPA as cytoprotectant against ASA-induced gastric lesions was also demonstrated | significant (p<0.01) gastric cytoprotection | – | minimal effective dose ([3]; Rattus norvegicus, po, parallel administration with acidified aspirin 10 mg/100 g, intragastric, rats, area and number of lesions, read-out: minimum statistically significant effective dose (MED)): ~300 mg/kg
anhydrous sodium thiosulfate [Na thiosulfate] | – | 5.21 ± 0.5 | 0.12±0.12 | 0.4±0.4 | 1/5 | 0 | 0 | 0/5 | low order of acute toxicity | did not influence the anti-inflammatory efficacy of aspirin | effective in reducing the number and size of lesions | – | about 32 mg/kg | gastric irritancy (male Sprague-Dawley rats; at the very high dose level of 7,000 mg/kg, single oral dose): gastric irritancy was observed; approximate acute oral LD50 (ALDsD) (male Sprague-Dawley rats; single oral dose, male rats fasted four hours, observed 7 days): 7,000 mg/kg; effect on the development of arthritis ([2]; 150 or 300 mg/kg alone, single oral daily doses for 16 days): did not demonstrate an effect on the development of arthritis; % Inhibition [2, 4]: 10%; % Inhibition [2, 5]: 2%; minimum statistically significant effective dose, as anhydrous form ([3]; coadministered with aspirin 10 mg/100 g, anhydrous equivalent of the pentahydrate dose): about 3 mg/100 g
sodium thiosulfate | – | – | – | – | – | – | – | – | low order of toxicity | did not reduce the antiinflammatory efficacy of aspirin | – | significant (p<0.01) gastric cytoprotection | – | –
sodium thiosulfate pentahydrate | – | – | – | – | – | – | – | – | – | – | – | – | about 50 mg/kg | protection against aspirin-induced gastric erosions ([3]; given p.o. 30 minutes before aspirin 10 mg/100 g): dose-dependent protection; minimum statistically significant effective dose (MED) ([3]; parallel administration with acidified aspirin 10 mg/100 g, intragastric, rats, area and number of lesions, listed as sodium thiosulfate as its pentahydrate): about 5 mg/100 g; minimum statistically significant effective dose (MED) ([3]; parallel administration with aspirin 10 mg/100 g, converted from mg/100 g): about 201 µmol/kg; Aspirin-induced Gastric Mucosal Erosions, percentage of glandular stomach area ([3]; single oral dose 1.0 mg/100 g body weight, aspirin concomitantly 10 mg/100 g in acidified 1% methylcellulose): 0.89 percentage of glandular stomach area; Aspirin-induced Gastric Mucosal Erosions, total number of erosions ([3]; single oral dose 1.0 mg/100 g body weight, aspirin concomitantly 10 mg/100 g): 6.67; Aspirin-induced Gastric Mucosal Erosions, percentage of glandular stomach area ([3]; single oral dose 5.0 mg/100 g body weight, aspirin concomitantly 10 mg/100 g, p<0.01): 0.18* percentage of glandular stomach area; Aspirin-induced Gastric Mucosal Erosions, total number of erosions ([3]; single oral dose 5.0 mg/100 g body weight, aspirin concomitantly 10 mg/100 g, p≤0.01): 1.56*; Aspirin-induced Gastric Mucosal Erosions, percentage of glandular stomach area ([3]; single oral dose 10.0 mg/100 g body weight, aspirin concomitantly 10 mg/100 g, p<0.01): 0.27* percentage of glandular stomach area; Aspirin-induced Gastric Mucosal Erosions, total number of erosions ([3]; single oral dose 10.0 mg/100 g body weight, aspirin concomitantly 10 mg/100 g, p≤0.01): 1.78*; Aspirin-induced Gastric Mucosal Erosions, percentage of glandular stomach area ([3]; single oral dose 30.0 mg/100 g body weight, aspirin concomitantly 10 mg/100 g, p<0.01): 0* percentage of glandular stomach area; Aspirin-induced Gastric Mucosal Erosions, total number of erosions ([3]; single oral dose 30.0 mg/100 g body weight, aspirin concomitantly 10 mg/100 g, p≤0.01): 0*
